For 14 molecules, TGI and GI50 results are on record in PubChem BioAssay (NCI).

Assay in all cases: NCI tumour cell line growth inhibition, 48 h
In assay [1] the test system is SNB-75 CNS.
Assay [2] concerns OVCAR-4 ovarian.
Assay [3] has as its system SK-OV-3 ovarian.
Assay [4] deals with TK-10 renal.
For assay [5], the system named is NCI-H522 lung.
The test system of assay [6] is OVCAR-5 ovarian.
In assay [7] the test system is RXF 393 renal.
The subject of assay [8] is HCC-2998 colon.
In assay [9] the test system is BT-549 breast.
Assay [10] concerns MCF7 breast.

Where “and” joins values, the source holds several entries; their conditions need not be identical. Identical values can stand only once.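 Interpolation was linear, between the two tested concentrations surrounding the appropriate level; five concentrations were tested over 48 hours in 96-well plates. GI50 is the concentration that inhibits growth by half. TGI denotes the concentration required for complete inhibition of growth.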 Some results are limits rather than exact numbers.

Regarding `CC[As](CC)SCC1OC(OC(C)=O)C(OC(C)=O)C(OC(C)=O)C1OC(C)=O` (configuration not stated), the TGI is 52.7 µM in assay [1]; 37 µM in [2]; 29.3 µM in assay [3]; 30.4 µM in [4]; 3.2 µM in assay [5]; 32.4 µM in [6]. The TGI in [7] amounted to 9.69 µM; in [8], 31.7 µM.
Consider `O=C1c2ccc3c4c(ccc(c24)C(=O)N1CCNCc1ccccc1)C(=O)N(CCNCc1ccccc1)C3=O`, for which the GI50 in assay [1] is 3.19 µM; in assay [2], 1.41 µM; in assay [3], 20.9 µM; in [4] it was 2.93 µM; in assay [9] it was 2.45 µM; in assay [6], 2.02 µM. For the same molecule, the GI50 in assay [7] is 1.41 µM; in assay [8] it was 1.74 µM. Also, the TGI in assay [1] is 43.1 µM; in assay [2], 2.71 µM; in assay [3] it was 45.4 µM; in [4] it was more than 100 µM; in assay [9], 6.19 µM; in assay [6], 4.61 µM. Also, the results for the TGI in [7] and in [8] were 4.21 µM and 3.15 µM, respectively.
As for `CCn1ncc(N=O)c1N`, the GI50 in assay [1] is 22 µM and 58 µM. Also, the TGI in assay [1], in [10], in assay [4], in assay [5], in assay [6] and in assay [8] was more than 100 µM in each case.
Turning to `CN1C2(c3ccccc3)C(C(=O)c3ccccc3)=C(C(=O)c3ccccc3)C1(c1ccccc1)c1c(-c3ccccc3)sc(-c3ccccc3)c12`, the TGI in assay [1], in [2], in [3], in [4], in [5] and in [6] was more than 100 µM in each case. For the same molecule, the TGI in assay [7] and in assay [8] was more than 100 µM each time.
On to `O=C(Cc1nc2ccccc2o1)C(=O)Nc1ccc(Cl)cc1Cl`, for which the TGI in assay [1], in assay [2], in assay [3], in [6], in assay [7] and in assay [8] was more than 100 µM in each case.
Regarding `O=C(CC(=O)c1cccc([N+](=O)[O-])c1)C(=O)Nc1ccccc1`, the TGI in assay [1], in assay [2], in [4], in assay [5], in assay [6] and in [7] was more than 100 µM each time. The TGI in [8] is more than 100 µM.
In the case of `CN(C)c1ccc(/C=c2/c3cc(O)ccc3n3c2cc(-c2ccccc2)[n+]3C)cc1`, the TGI in assay [1] is 1.95 µM; in assay [2], more than 100 µM; in assay [10] it was more than 100 µM; in [3] it was more than 100 µM; in [4], more than 100 µM; in assay [5] it was 1.75 µM. For the same molecule, the TGI in assay [6] was more than 100 µM; in assay [7] it was 3.54 µM; in [8], more than 100 µM. Further, the GI50 in assay [2] was 2.83 µM; in assay [10], 1.18 µM; in [3] it was 6.13 µM; in [4], 4.88 µM; in [6] it was 6.04 µM.
On to `[CH3][Hg]/[N]=C(/N)NC#N`, for which the GI50 in assay [1] is 12.1 µM; in assay [2], 3.23 µM; in assay [3], 16.9 µM; in assay [4], 3.35 µM; in assay [5], 1.29 µM; in [6], 17.1 µM. The GI50 in assay [7] was 1.4 µM. In addition, the TGI was determined as 24.4 µM in assay [1]; 9.31 µM in assay [2]; 30.8 µM in assay [3]; 14.8 µM in assay [4]; 2.57 µM in [5]; 31 µM in assay [6]. Besides, the TGI in assay [7] stood at 5.13 µM.
Take `Cc1cc(C)nc(NS(=O)(=O)c2ccc(NC(=O)COC(=O)c3cccc4c(=O)c5ccccc5[nH]c34)cc2)n1`: the TGI in [1] is 73.5 µM; in [2] it was more than 100 µM; in [3], more than 100 µM; in assay [4], more than 100 µM; in [5] it was 70.9 µM; in assay [6], 58.9 µM. Further, the TGI in [7] worked out at 74.5 µM; in assay [8], 37.9 µM.
Regarding `CC[C@@]1(O)C(=O)OCc2c1cc1n(c2=O)Cc2c-1nc1cc(F)c(C)c3c1c2[C@@H](NC(=O)CO)CC3`, the GI50 was less than 0.01 µM in assay [1]; 0.206 µM in assay [2]; 0.0173 µM in assay [3]; 0.4 µM in [4]; less than 0.01 µM in assay [5]; less than 0.0118 µM in assay [9]. Also, the GI50 in assay [6] is 0.115 µM; in assay [7], less than 0.01 µM; in assay [8], 0.163 µM. Further, the TGI was 0.133 µM in [1]; more than 100 µM in assay [2]; 4.96 µM in [3]; 7.43 µM in assay [4]; 0.328 µM in assay [5]; 0.73 µM in assay [9]. The TGI in assay [7] was 0.0731 µM; in [8] it was 3.51 µM.
Consider `Cc1cc(C)c(/C=N/NS(=O)(=O)c2ccccc2)c(C)c1`, for which the TGI in [1], in [2], in [3], in [4], in assay [6] and in [7] was more than 100 µM in each case. The TGI in [8] was more than 100 µM.
On to `COc1ccc([C@@H]2OC(=O)C3C2C(=O)O[C@H]3c2ccc(OC)cc2)cc1` (some centres not stated), for which the TGI in assay [1], in assay [2], in assay [3], in assay [7] and in assay [8] was more than 100 µM in each case.
With `CC1C(O)=C(O)c2ccccc2N1O` (configuration not stated), the TGI in [1], in [2], in [3], in assay [4], in assay [5] and in assay [6] was more than 100 µM in each case. The TGI in assay [7] and in assay [8] was more than 100 µM throughout.
`O=C(O)CCC1c2[nH]c3ccccc3c2CCN1Cc1ccccc1` (configuration not stated): the TGI in assay [1], in assay [2], in assay [3], in [4], in assay [5] and in assay [6] was more than 100 µM each time. In addition, the TGI in assay [8] was more than 100 µM.
